Tested on: corneas of colored rabbit after excimer laser abrasion
Assay: accelerating activity for corneal wound healing after excimer laser treatment (histological observation of corneal slices)
Format: in vivo
Conditions: eye drop 100 μg/ml; for epithelium regeneration in the excimer-laser irradiated portion / inflammatory changes / thickness of the regenerated epithelium / vacuolation and fibroblast growth in the tunica propria / under the epithelium: single droplet twice a day for 5 to 7 days, optical microscope
Description: The following tests were performed with respect to the accelerating activity for the corneal wound healing after excimer laser treatment.
HP 1 and HP 2 were diluted with 1.2 ml of an oxyglutathion eye-perfusion/washing solution (trade name: BSS plus, manufactured by Santen Seiyaku) to obtain a diluted solution in a final concentration of 0.1 mg/ml. 1000 μg/ml of EGF was diluted with 1 ml of the oxyglutathion eye-perfusion/washing solution to obtain a diluted solution in a final concentration of 0.1 mg/ml. FN was diluted with 10 ml of the oxyglutathion eye-perfusion/washing solution to obtain a diluted solution in a final concentration of 0.1 mg/ml.
A colored rabbit was used as a test animal. The following surgical operation was applied to the rabbit.
An excimer laser was radiated to the corneas of both eyes of the rabbit under the condition of 180 mj/10 nsec (10 Hz) per pulse. By this radiation, the surface of central corneal parenchyma was cut off by abrasion in the form of a meniscus having a diameter of 4.5 mm (9.9 diopter) and a maximum center-depth of 70 μm. The excimer laser was radiated by using Omunimed (trade name) manufactured by Summit (U.S.A.).
Each of the aforementioned samples was administered to both eyes twice a day. A single droplet (about 50 μl) was administrated once in the morning and the afternoon for 5 to 7 days.
As Comparative examples, eye drops were prepared by dissolving the aforementioned samples in the oxyglutathion eye perfusion/washing solution in accordance with Table 2 and administered to both eyes of the rabbit.
After completion of droplet administration, right and left eyes were taken out from the rabbit and fixed with a glutathion aldehyde/formalin fixing solution. After the fixation, each cornea including a laser irradiated portion and a non-irradiated portion were excised out. Then, paraffin blocks were prepared in accordance with a customary method and thin-film slices of 5 μm thick were prepared by means of a microtome. The obtained corneal slices were stained with H.E. (hematoxylin-eosin) and then subjected to special staining such as PAS or trichrome.

Row | Compound | overall corneal wound healing accelerating / corneal therapeutic effect (conclusion) (after excimer laser treatment) | epithelium regeneration in the excimer-laser irradiated portion | inflammatory changes | thickness of the regenerated epithelium | vacuolation and fibroblast growth in the tunica propria / under the epithelium
1 | CC[C@H](C)[C@H](NC(=O)[C@H](Cc1ccc(O)cc1)NC(=O)[C@@H]1CCCN1C(=O)[C@H](CCCNC(=N)N)NC(=O)[C@H](CCCNC(=N)N)NC(C)=O)C(=O)N[C@@H](CC(C)C)C(=O)O [HP2, N-acetyl-Arg-Arg-Pro-Tyr-Ile-Leu-OH] | confirmed to have an corneal wound healing accelerating effect | observed in the entire irradiated portion | not observed | nonuniform | Vacuolation and fibroblast growth were observed
2 | EGF: epithelial cell growth factor, manufactured by Bio Medical Technologies |  | observed in the entire irradiated portion | inflammatory changes were observed | nearly uniform | vacuolation and fibroblast growth were observed
3 | fibronectin [FN] |  | observed in the entire irradiated portion | inflammatory changes were observed | nonuniform | relatively significant

— patent publication US5846940A, “Corneal therapeutic agent” (Okamoto; Sinseiro, priority 1994, dated 1998)
